Test results taken from patent US20080280883A1, “Muscarinic Receptor Antagonists” (priority 2004, published 2008).

System: bladder pressure and salivation
Experiment: In vivo experiments using anesthetized rabbit (carbachol challenge)
Conditions: carbachol 1.5 ug/kg intra-arterial, from ID50 values, expressed as fold of selectivity of oxybutynin

Structure (SMILES)	Selectivity for bladder pressure inhibition vs. salivation
CN1CCC(N(C)CC(O)C(O)(c2ccccc2)C2CCCC2)CC1 (centres unmarked) [Compound No. 24, 1-Cyclopentyl-3-[methyl-(1-methyl-piperidin-4-yl)-amino]-1-phenyl-propane-1,2-diol]	about 2
CC1=NCCN1CC(=O)[C@](O)(c1ccccc1)C1CCCC1 [Compound No. 85, (2R)-1-Cyclopentyl-1-hydroxy-3-(2-methyl-4,5-dihydro-imidazol-1-yl)-1-phenyl-propan-2-one]	about 2
